{
  "source": "patent US12622880B2",
  "about": "“Therapeutic system for the topical, transdermal and transcutaneous application of carbon monoxide” (Julius-Maximilians-Universitaet Wuerzburg, priority 2020, dated 2026)",
  "test": "CO release through pig ear skin",
  "assay_type": "in vitro ADME",
  "protocol": "Pig ear skin was purchased from a butcher and prepared immediately after delivery. Skin was carefully removed from the remaining fat and cartilage. Subsequent to the preparation, the skin was clamped between the top and bottom compartment of the test cell. Sealing was ensured by screw clamps and a sealing ring (FIG. 5A).\nFor the experiment 15 mg of tri-sodium Beck-1 ((Mo(CO)3(CNCH2CO2Na)3) were placed in the bottom compartment of the test cell and dissolved in 4 mL H2O. CO release was activated by adding 1 mL of iron(III)chloride solution (350 mg/mL) to the tri-sodium Beck-1. CO release through the pig skin was measured over a time period of 1000 minutes.\nThe data shown in FIG. 6 illustrates that CO release trough the pig skin is a slow process and reaches plateau in the raw data at around 500 minutes and stays at that plateau of 200 ppm CO for another 500 minutes until the end of the experiment. A plateau in the raw data means that the sensor consumption of CO is at the same rate as the release through the skin. To correct for the sensor consumption, CO release data of tri-sodium Beck-1 without any limiting membranes were used to calculate the consumption rate of the sensor.",
  "data": [
    {"smiles": "[C-]#[O+]", "note": "[CO, carbon monoxide]", "values": [
      {"measurement": "CO release through the pig skin, maximum in the corrected data", "setting": "15 mg tri-sodium Beck-1 activated with iron(III)chloride, at 1000 minutes, corrected for sensor consumption of CO", "result": 340, "unit": "ppm"},
      {"measurement": "CO release through the pig skin, plateau in the raw data", "setting": "15 mg tri-sodium Beck-1 in 4 mL H2O activated with 1 mL iron(III)chloride solution (350 mg/mL), averaged raw data (n=2), plateau held until 1000 minutes", "result": 200, "unit": "ppm"},
      {"measurement": "time at which CO release through the pig skin reaches plateau in the raw data", "setting": "15 mg tri-sodium Beck-1 in 4 mL H2O activated with 1 mL iron(III)chloride solution (350 mg/mL), raw data", "result": "around 500 minutes"}
    ]}
  ]
}
